Consider 19 molecules from US11878975B2, “Substituted indole compounds useful as TLR inhibitors” (BRISTOL-MYERS SQUIBB COMPANY, priority 2017, dated 2024).

Common to all, as to assay type: cell-based
In one assay the target is T1, human TLR9 (Homo sapiens, UniProt Q9NR96).
T1 construct: host or cells: HEK-Blue cells
T1 sequence (Q9NR96 26-1032): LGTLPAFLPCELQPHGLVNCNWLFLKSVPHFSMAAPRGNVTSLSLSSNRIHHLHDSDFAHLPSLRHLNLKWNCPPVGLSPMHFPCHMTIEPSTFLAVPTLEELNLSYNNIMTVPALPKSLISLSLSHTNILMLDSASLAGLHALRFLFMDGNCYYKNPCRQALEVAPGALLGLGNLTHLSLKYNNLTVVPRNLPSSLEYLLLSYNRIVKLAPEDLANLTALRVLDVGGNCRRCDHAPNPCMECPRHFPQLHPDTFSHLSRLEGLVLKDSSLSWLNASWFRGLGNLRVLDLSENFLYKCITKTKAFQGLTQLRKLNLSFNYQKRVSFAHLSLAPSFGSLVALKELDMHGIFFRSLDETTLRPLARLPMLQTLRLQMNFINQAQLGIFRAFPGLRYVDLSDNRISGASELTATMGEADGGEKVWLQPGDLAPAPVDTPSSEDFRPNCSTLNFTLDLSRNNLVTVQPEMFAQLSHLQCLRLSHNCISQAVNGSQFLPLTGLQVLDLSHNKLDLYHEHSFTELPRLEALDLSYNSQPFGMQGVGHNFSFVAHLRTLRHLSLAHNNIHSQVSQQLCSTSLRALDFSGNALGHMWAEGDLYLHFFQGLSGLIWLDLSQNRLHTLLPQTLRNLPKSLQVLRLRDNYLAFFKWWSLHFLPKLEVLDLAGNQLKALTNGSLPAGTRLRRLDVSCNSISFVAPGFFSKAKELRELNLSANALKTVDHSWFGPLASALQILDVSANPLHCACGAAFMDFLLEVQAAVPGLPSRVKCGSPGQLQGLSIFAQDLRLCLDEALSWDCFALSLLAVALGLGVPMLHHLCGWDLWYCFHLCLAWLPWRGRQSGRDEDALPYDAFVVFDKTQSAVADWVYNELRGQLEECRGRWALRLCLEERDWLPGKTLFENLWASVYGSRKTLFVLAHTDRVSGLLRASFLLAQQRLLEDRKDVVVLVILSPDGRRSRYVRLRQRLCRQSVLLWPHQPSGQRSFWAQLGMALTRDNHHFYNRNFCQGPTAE
In words: TLR9 inhibition reporter assay (HEK-Blue cells, SEAP reporter, ODN2006 stimulation). The settings on record: HEK-Blue cells overexpressing human TLR9, SEAP reporter, ODN2006 5 nM. The method, boiled down: (§1)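 HEK-Blue cells with NF-κB/AP-1-driven SEAP reporter, pre-treated 30 min at room temperature with compound (0.05 nM-50 μM). Stimulants: gardiquimod 7.5 μM (TLR7), R848 15.9 μM (TLR8) or ODN2006 5 nM (TLR9). SEAP measured after 22 h at 37° C.; percent inhibition versus agonist-plus-DMSO and known-inhibitor wells.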

For another assay, the target named is T2, human TLR7 (Homo sapiens, UniProt Q9NYK1).
T2 construct: host or cells: HEK-Blue cells
T2 sequence (Q9NYK1 27-1049): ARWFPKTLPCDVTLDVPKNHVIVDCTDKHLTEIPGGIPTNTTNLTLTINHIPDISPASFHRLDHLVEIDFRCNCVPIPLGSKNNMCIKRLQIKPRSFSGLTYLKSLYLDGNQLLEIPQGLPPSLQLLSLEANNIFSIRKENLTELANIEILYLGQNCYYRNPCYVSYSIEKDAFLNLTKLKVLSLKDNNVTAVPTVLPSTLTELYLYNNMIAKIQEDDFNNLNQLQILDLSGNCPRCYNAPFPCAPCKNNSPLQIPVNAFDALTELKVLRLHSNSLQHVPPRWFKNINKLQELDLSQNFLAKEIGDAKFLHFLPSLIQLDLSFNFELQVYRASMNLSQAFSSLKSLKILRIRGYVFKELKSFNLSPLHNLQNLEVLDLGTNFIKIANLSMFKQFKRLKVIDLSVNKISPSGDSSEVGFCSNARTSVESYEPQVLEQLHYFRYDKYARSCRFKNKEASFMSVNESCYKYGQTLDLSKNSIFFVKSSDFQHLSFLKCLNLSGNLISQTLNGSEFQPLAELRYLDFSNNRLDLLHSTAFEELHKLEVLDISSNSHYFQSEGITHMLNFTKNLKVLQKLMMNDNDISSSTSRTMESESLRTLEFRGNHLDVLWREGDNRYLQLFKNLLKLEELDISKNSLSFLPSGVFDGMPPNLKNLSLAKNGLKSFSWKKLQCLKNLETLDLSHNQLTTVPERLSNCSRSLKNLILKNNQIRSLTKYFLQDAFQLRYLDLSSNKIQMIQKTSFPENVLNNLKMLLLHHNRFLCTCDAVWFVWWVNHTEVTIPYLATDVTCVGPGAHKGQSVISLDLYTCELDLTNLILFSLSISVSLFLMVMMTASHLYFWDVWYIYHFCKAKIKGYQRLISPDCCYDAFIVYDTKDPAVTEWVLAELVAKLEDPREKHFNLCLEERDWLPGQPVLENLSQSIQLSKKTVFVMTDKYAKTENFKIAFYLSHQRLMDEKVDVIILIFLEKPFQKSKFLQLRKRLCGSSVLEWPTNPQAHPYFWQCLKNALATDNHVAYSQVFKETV
In words: TLR7 inhibition reporter assay (HEK-Blue cells, SEAP reporter, gardiquimod stimulation). As to conditions: HEK-Blue cells overexpressing human TLR7, SEAP reporter, gardiquimod 7.5 μM. A digest of the protocol: as §1
For orientation: In a reporter assay the amount or activity of a reporter protein is the signal.

The target in a further assay is T3, human TLR8 (Homo sapiens, UniProt Q9NR97).
T3 construct: host or cells: HEK-Blue cells
T3 sequence (Q9NR97 27-1041): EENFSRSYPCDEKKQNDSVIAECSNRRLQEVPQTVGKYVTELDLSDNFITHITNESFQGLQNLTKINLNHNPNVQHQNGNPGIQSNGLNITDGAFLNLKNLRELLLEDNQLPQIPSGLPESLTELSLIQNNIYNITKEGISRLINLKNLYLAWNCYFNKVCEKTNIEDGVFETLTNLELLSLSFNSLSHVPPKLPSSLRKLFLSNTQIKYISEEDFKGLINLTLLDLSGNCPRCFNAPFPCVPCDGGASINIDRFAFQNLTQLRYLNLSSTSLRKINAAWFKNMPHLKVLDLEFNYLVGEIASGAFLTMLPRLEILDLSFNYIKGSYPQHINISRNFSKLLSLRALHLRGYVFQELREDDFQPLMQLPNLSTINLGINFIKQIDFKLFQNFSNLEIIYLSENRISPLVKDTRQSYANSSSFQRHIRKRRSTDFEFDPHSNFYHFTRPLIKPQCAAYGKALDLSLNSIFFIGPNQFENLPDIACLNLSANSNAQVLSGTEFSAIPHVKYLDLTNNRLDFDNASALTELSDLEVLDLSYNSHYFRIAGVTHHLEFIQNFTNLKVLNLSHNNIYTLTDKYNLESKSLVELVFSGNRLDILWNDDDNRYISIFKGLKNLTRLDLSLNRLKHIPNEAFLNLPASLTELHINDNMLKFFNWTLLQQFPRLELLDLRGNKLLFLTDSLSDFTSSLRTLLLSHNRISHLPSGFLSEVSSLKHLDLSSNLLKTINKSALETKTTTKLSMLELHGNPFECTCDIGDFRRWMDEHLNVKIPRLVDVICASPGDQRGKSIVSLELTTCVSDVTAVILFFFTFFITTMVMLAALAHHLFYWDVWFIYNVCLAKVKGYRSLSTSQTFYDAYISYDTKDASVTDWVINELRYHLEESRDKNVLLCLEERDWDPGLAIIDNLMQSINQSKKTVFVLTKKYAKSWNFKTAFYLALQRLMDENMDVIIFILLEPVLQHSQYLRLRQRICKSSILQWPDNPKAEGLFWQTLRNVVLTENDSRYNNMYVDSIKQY
In words: TLR8 inhibition reporter assay (HEK-Blue cells, SEAP reporter, R848 stimulation). As to conditions: HEK-Blue cells overexpressing human TLR8, SEAP reporter, R848 15.9 μM. The method, boiled down: as §1

A word on the IC50: it is the midpoint of a concentration-inhibition curve. A higher IC50 goes with lower potency. For `COc1cc(-c2[nH]c3ccc(C4CCCN(C(C)C)C4)cc3c2C(C)C)cn2ncnc12` (stereo not drawn) [Example 236, 6-(3-isopropyl-5-(1-isopropylpiperidin-3-yl)-1H-indol-2-yl)-8-methoxy-[1,2,4]triazolo[1,5-a]pyridine], the IC50 at human TLR9 came to 1250 nM; at human TLR7, 1 nM; at human TLR8 it was 0.46 nM.
For `Cc1c(-c2[nH]c3ccc(C4CC5CN(CC(=O)N(C)C)CC5C4)cc3c2C(C)C)cn2cnnc2c1C` (stereo not drawn) [Example 520], the values for the half-inhibitory concentration (IC50) against human TLR9, against human TLR7 and against human TLR8 were 17700 nM, 29 nM and 66 nM, respectively.
`Cc1cc(-c2[nH]c3ccc(CC4CCCN4Cc4ccccc4)cc3c2C(C)C)cn2ncnc12` (single isomer, unassigned) [Example 396, 5-[(1-benzylpyrrolidin-2-yl)methyl]-2-{8-methyl-[1,2,4]triazolo[1,5-a]pyridin-6-yl}-3-(propan-2-yl)-1H-indole]: the IC50 against human TLR9 turned out to be 2380 nM; at human TLR7, 2 nM; against human TLR8, 2.8 nM.
In the case of `COc1cc(-c2[nH]c3ccc(C4CN(C(=O)CNC5(C)COC5)CCO4)cc3c2C(C)C)cn2ncnc12` (stereo not drawn) [Example 361], the IC50 is 5320 nM on human TLR9, 0.91 nM against human TLR7 and 2.5 nM against human TLR8.
For the molecule `CNC1CCC(c2ccc3[nH]c(-c4cn5cnnc5c(C)c4C)c(C(C)C)c3c2)CC1` (stereo not drawn) [Example 525], the IC50 against human TLR9 came to 4410 nM; against human TLR7, 7 nM; against human TLR8, 50 nM.
With `Cc1cc(-c2[nH]c3ccc(C4CCC(N(C)CC(=O)N(C)C)CC4)cc3c2C(C)C)cn2ncnc12` (single isomer, unassigned) [Example 178, 2-((4-(3-isopropyl-2-(8-methyl-[1,2,4]triazolo[1,5-a]pyridin-6-yl)-1H-indol-5-yl)cyclohexyl)(methyl)amino)-N,N-dimethylacetamide], the IC50 on human TLR9 came out at 1780 nM; against human TLR7 it was 0.23 nM; against human TLR8, 2.4 nM.
Take `CN[C@@H](C)C(=O)NC1CCC(c2ccc3[nH]c(-c4cn5ncnc5c(C)c4C)c(C(C)C)c3c2)CC1` (stereo partly drawn) [Example 131]: the IC50 at human TLR9 was found to be 2990 nM; against human TLR7, 0.45 nM; against human TLR8, 1 nM.
For `Cc1c(-c2[nH]c3ccc(C4CCC(NC5COC5)CC4)cc3c2C(C)C)cn(C)c(=O)c1C` (stereo not drawn) [Example 474], in that order: 28900 nM, 45 nM and 19 nM.
Take `COCCN1CC(c2ccc3[nH]c(-c4cn5cnnc5c(C)c4C)c(C(C)C)c3c2)C1` [Example 550]: the values for the IC50 against human TLR9, on human TLR7 and against human TLR8 were 13600 nM, 17 nM and 13 nM, respectively.
As to `COc1cc(-c2[nH]c3ccc(C4CC(N)C4)cc3c2C(C)C)cn2ncnc12` (stereo not drawn) [Example 568], the values for the IC50 against human TLR9, on human TLR7 and at human TLR8 were 980 nM, 0.53 nM and 0.76 nM, respectively.
As to `Cc1cc(-c2[nH]c3ccc(C4CN(C)CCO4)cc3c2C(C)C)cn2ncnc12` (stereo not drawn) [Example 297], the concentration for half-maximal inhibition (IC50) against human TLR9 stood at 6630 nM; against human TLR7, 2 nM; at human TLR8 it was 0.61 nM.
Regarding `Cc1cc(-c2[nH]c3ccc(C4CCCN(C(=O)[C@@H]5CCN5)C4)cc3c2C(C)C)cc(C)n1` (stereo partly drawn) [Example 218], the 50% inhibitory concentration (IC50) on human TLR9 worked out at 699 nM; on human TLR7, 15 nM; at human TLR8 it was 80 nM.
The like results for `CNC(=O)CN1CCCC(c2ccc3[nH]c(-c4cc(OC)c5ncnn5c4)c(C(C)C)c3c2)C1` (stereo not drawn) [Example 223] were, in that order, 7500 nM, 2 nM and 13 nM.
Regarding `COc1cc(-c2[nH]c3ccc(CCC4CN(CC(C)(C)O)C4)cc3c2C(C)C)cn2ncnc12` [Example 441], the IC50 worked out at 2570 nM at human TLR9, 2 nM at human TLR7 and 3.8 nM on human TLR8.
For `Cc1c(-c2[nH]c3ccc(CC4CN(C(=O)CN(C)C)C4)cc3c2C(C)C)cn2ncnc2c1C` [Example 436], the concentration for half-maximal inhibition (IC50) came to 10800 nM on human TLR9, 3 nM at human TLR7 and 11 nM at human TLR8.
Take `COc1cc(-c2[nH]c3ccc(C4CN(C5COC5)C4)cc3c2C(C)C)cn2ncnc12` [Example 274]: the IC50 turned out to be 3880 nM on human TLR9, 1 nM on human TLR7 and 2.7 nM at human TLR8.
Take `Cc1c(-c2[nH]c3ccc(C4CN(CC(=O)N(C)C)C4)cc3c2C(C)C)cn(C)c(=O)c1C` [Example 489]: the IC50 on human TLR9 is 14900 nM; at human TLR7, 128 nM; on human TLR8, 20 nM.
The like results for `CCN(CC)CC(=O)NC1CCC(c2ccc3[nH]c(-c4cn5ncnc5c(C)c4C)c(C(C)C)c3c2)CC1` (stereo not drawn) [Example 125] were, in that order, 6980 nM, 11 nM and 10 nM.
On to `COCCN(C)C1CCC(c2ccc3[nH]c(-c4cc(OC)c5ncnn5c4)c(C(C)C)c3c2)CC1` (single isomer, unassigned) [Example 79], for which the IC50 turned out to be 2580 nM against human TLR9, 2 nM at human TLR7 and 5.7 nM on human TLR8.
